Measured values as given in patent publication US12352767B2, “Method of treating cognitive decline associated with neurological diseases based on a decrease in FLT4 expression or activity” (University of Virginia Patent Foundation, priority 2018, dated 2025).
Entries after “also recorded” stand apart in the source; their conditions may differ.

Key:
[1] = test system: meningeal lymphatic drainage; test: Drainage of CSF tracer (OVA-A647) into deep cervical lymph nodes; format: in vivo, mice; conditions: 7 days after Visudyne/photoconversion, 2 h after i.c.m. tracer, vs control groups
Protocol: Mice were anaesthetized by intraperitoneal (i.p.) injection of a mixed solution of ketamine (100 mg/Kg) and xylazine (10 mg/Kg) in saline. The skin of the neck was shaved and cleaned with iodine and 70% ethanol, ophthalmic solution placed on the eyes to prevent drying and the mouse's head was secured in a stereotaxic frame. After making a skin incision, the muscle layers were retracted and the cisterna magna exposed. Using a Hamilton syringe (coupled to a 33-gauge needle), the volume of the desired tracer solution was injected into the CSF-filled cisterna magna compartment. For brain CSF influx and lymphatic drainage experiments, 2 or 5 μL of Alexa Fluor® 594 or 647 conjugated OVA (Thermo Fisher Scientific), at 0.5 mg/mL in artificial CSF (#597316, Harvard Apparatus U.K.), were injected at a rate of 2.5 μL/min. After injecting, the syringe was left in place for additional 2 min to prevent back-flow of CSF.

brain parenchyma = test: Efflux of fluorescent tracers injected into the brain parenchyma; format: in vivo, mice; conditions: 7 days after Visudyne/photoconversion, vs both control groups
Protocol: An incision was made in the skin to expose the skull and a hole was drilled at +1.5 mm in the anterior-posterior axis and −1.5 mm in the medial-lateral axis relative to bregma. Then, using a Hamilton syringe (coupled to a 33-gauge needle) placed at +2.5 mm in the dorsal-ventral axis (relative to bregma), 1 μL of either Alexa Fluor® 647 conjugated OVA (at 0.5 mg/mL), HiLyte™ Fluor 647 conjugated Aβ42 (at 0.05 μg/mL, AnaSpec, Inc.) or BODIPY™ FL conjugated low density lipoprotein (LDL) from human plasma (at 0.1 mg/mL, Thermo Fisher Scientific) in artificial CSF were injected at a rate of 0.2 μL/min into the brain parenchyma. […] After injecting, the syringe was left in place for additional 5 min to prevent back-flow.

J20 mice = test: Amyloid pathology in meninges and hippocampus of J20 mice (Aβ immunostaining); format: in vivo
Protocol: Male or female wild-type mice (C57BL/6J background) were either bred in-house, purchased from the Jackson Laboratory (Bar Harbor, Maine, USA) or provided by the National Institutes of Health/National Institute on Aging (Bethesda, MD, USA). All mice were maintained in the animal facility for habituation for at least 1 week prior to the start of the manipulation/experimentation. C57BL/6J wild-type mice were tested at 2-3, 12-14 and 20-24 months of age. Male hemizygous B6.Cg-Tg(PDGFB-APPSwInd)20Lms/2Mmjax (J20, JAX stock #006293) and B6.Cg-Tg(APPSwFILon,PSEN1*M146L*L286V)6799Vas/Mmjax (5×FAD, JAX stock #008730) were purchased from the Jackson Laboratory and bred in-house on a C57BL/6J background. […] 5×FAD hemizygous mice overexpress the transgene constructs under neural-specific elements of the mouse thymocyte differentiation antigen 1 promoter and present accelerated accumulation of Aβ42 and deposition of amyloid and gliosis in the brain starting at 2 months of age, with dramatic amyloid plaque load without major behavioral deficits at 5 months^45. In-house bred male transgene carriers and non-carrier (WT) littermates were used at different ages that are indicated throughout the manuscript. […]

meningeal immune cells = test: Flow cytometry of meningeal immune cell populations; format: in vivo; conditions: 5xFAD mice
Protocol: Individual meninges were immediately dissected from the mouse's skull cap and digested 15 min at 37° C. with 1.4 U/ml of Collagenase VIII (Sigma Aldrich) and 35 U/ml of DNAse I (Sigma Aldrich) in complete media consisting of DMEM (Gibco) with 2% FBS (Atlas Biologicals), 1% L-Glutamine (Gibco), 1% penicillin/streptomycin (Gibco), 1% Sodium pyruvate (Gibco), 1% non-essential amino-acid (Gibco) and 1.5% Hepes (Gibco). […] Cell viability was determined by using the Zombie Aqua™ Fixable Viability Kit following the manufacturer's instructions (BioLegend). […] Fluorescence data was collected with a Gallios™ Flow Cytometer (Beckman Coulter, Inc.) then analyzed using FlowJo software (Tree Star, Inc.). […] An aliquot of unstained cells of each sample was counted using Cellometer Auto2000 (Nexcelor) to provide accurate counts for each population. […]

## verteporfin [Visudyne]
[1]
  OVA-A647 drainage from CSF into dCLNs (area fraction): significant reduction; also recorded: significantly less amount of tracer
Brain parenchyma; one hour after stereotaxic injection
  levels of remaining tracers in brain parenchyma (Aβ42-HiLyte647, OVA-A647, LDL-BODIPY FL): higher levels of remnants
Brain parenchyma
  Aβ42-HiLyte647 area fraction in the injected brain hemisphere: significantly higher level
  LDL-BODIPY FL area fraction in the injected brain hemisphere: significantly higher level
  OVA-A647 area fraction in the injected brain hemisphere: significantly higher level
J20 mice; Visudyne/photoconversion every 3 weeks for 3 months
  Aβ aggregates / amyloid deposition in the meninges: Aβ aggregates had formed in the meninges; also recorded: marked amyloid deposition
J20 mice; Visudyne/photoconversion for 3 months vs vehicle
  Aβ plaque load (coverage) in the hippocampi: significantly increased; also recorded: statistically significant increase in coverage
Meningeal immune cells; 1.5 months Visudyne/photoconversion vs both control groups
  number of macrophages in the meninges: significant increase
Meningeal immune cells; Visudyne group (no photoconversion) compared to Visudyne/photoconversion group
  neutrophils in the meninges: significant increase
